Assay results: US20250304620A1, “ANTIMICROBIAL PEPTIDE AND APPLICATION THEREOF” (priority 2023, published 2025)
≈ marks a conversion by molar mass, not a printed value. Marks after values point to notes of the source that are not given here. Non-standard residues stand in square brackets, D forms with d. Residues, ends and D or L forms follow the SMILES beside them. d2Nal = N[C@H](Cc1ccc2ccccc2c1)C(=O)O

Tests used:
[1] = tested on: Escherichia coli ATCC 25922; experiment: Oral formulations on mice with systemic bacterial infection; format: in vivo, ICR mice; details: three times a day for 7 days; for Number of mice that died on each day after infection: day 4 / Number of mice that died on each day after infection: day 5 / Number of mice that died on each day after infection: day 6 / Number of mice that died on each day after infection: day 7 / Number of mice that died on each day after infection: day 8 / Average survival times (Days): n = 10; for Average survival times (Days): observed for 14 d
How it was run: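 Survival time and deaths were logged over a 14 d observation after oral gavage dosing (by body weight, thrice daily, 7 days, starting right after infection). Model: mixed-sex ICR mice, n=10 per group, intraperitoneal injection of E. coli ATCC 25922 suspension (0.2 mL, 1×10^7 CFU/mL).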

[2] = tested on: Staphylococcus aureus (NRS 384); details: NRS 384, 3 h
Protocol: Trypsin (250 U/mg, pH=8.0) and AMPs (LV-1 to LV-30) were mixed in a ratio of 1:10 (w/w) and added to a reaction buffer (0.2 M sodium phosphate, 1 mM CaCl2), pH 7.5), and then incubated at 37° C. for 3 h.

[3] = tested on: Pseudomonas aeruginosa ATCC 27853; experiment: Injectable formulations on mice infected with peritonitis; format: in vivo, ICR mice; details: twice a day for 3 days; for Number of mice that died on each day after infection: day 1 / Number of mice that died on each day after infection: day 2 / Number of mice that died on each day after infection: day 3 / Number of mice that died on each day after infection: day 4 / Number of mice that died on each day after infection: day 5 / Average survival times (Days): n = 10; for Average survival times (Days): observed for 14 d
How it was run: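 Survival readout: deaths and survival time tracked for 14 d. Treatment was tail-vein injection by body weight, twice a day for 3 consecutive days, starting right after intraperitoneal challenge with 0.2 mL of 1×10^9 CFU/mL P. aeruginosa ATCC 27853 in male and female ICR mice.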

[4] = tested on: Staphylococcus aureus (NRS 384); experiment: microbe, parasite or virus in culture; format: cell-based; details: NRS 384
How it was run: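 MICs were read against S. aureus strain NRS 384 using twofold serial dilution by CLSI microdilution rules. Levofloxacin and Cbf-K16 were the reference controls, and the test was repeated 5 times in parallel.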

[5] = tested on: Bacillus subtilis ATCC 6633; format: cell-based
Source text: (§1) According to the Standards of Clinical and Laboratory Standards Institute (CLSI) of the USA for antimicrobial drug susceptibility test operation standards, the micronutrient serial twofold dilution method was used further determine MICs of 30 AMPs (S/N: LV-1 to LV-30) 10 clinically common sensitive strains and 6 fungi in clinical practice. The experiment was repeated 5 times in parallel.

Enterococcus ATCC 29212 = format: cell-based
Source text: as §1

Candida krusei ATCC 6258 = format: cell-based
Source text: as §1

[6] = tested on: Staphylococcus aureus ATCC 25923; format: cell-based
Source text: as §1

[7] = tested on: Candida tropicalis ATCC 750; format: cell-based
Source text: as §1

[8] = tested on: Escherichia coli ATCC 25922; format: cell-based
Source text: as §1

[9] = tested on: Klebsiella pneumoniae ATCC 700603; format: cell-based
Source text: as §1

[10] = tested on: Trichophyton ATCC MYA-4438; format: cell-based
Source text: as §1

[11] = tested on: Corynebacterium ATCC 7715; format: cell-based
Source text: as §1

[12] = tested on: Serratia marcescens ATCC 29021; format: cell-based
Source text: as §1

[13] = tested on: Candida albicans ATCC MYA-2876; format: cell-based
Source text: as §1

[14] = tested on: Pseudomonas aeruginosa ATCC 27853; format: cell-based
Source text: as §1

[15] = tested on: Salmonella typhimurium ATCC 14028; format: cell-based
Source text: as §1

Candida utilis ATCC 9950 = format: cell-based
Source text: as §1

[16] = tested on: Candida glabrata ATCC 15126; format: cell-based
Source text: as §1

Compound: CC(=O)N[C@H](CCCNC(=N)N)C(=O)N[C@H](CCCCN)C(=O)N[C@H](CC(C)C)C(=O)N[C@H](CC(C)C)C(=O)N[C@H](Cc1ccc2ccccc2c1)C(=O)N[C@H](CCCCN)C(=O)N[C@H](CC(C)C)C(=O)N[C@H](CCCCN)C(=O)N[C@H](Cc1ccc2ccccc2c1)C(=O)N[C@H](CCCCN)C(=O)N[C@H](CCCNC(=N)N)C(N)=O [LV-18] (Ac-[dR][dK][dL][dL][d2Nal][dK][dL][dK][d2Nal][dK][dR]-NH2)
- Number of mice that died on each day after infection: day 4 ([1]; 0.2 mg/kg gavage): 0 Mouse
- Number of mice that died on each day after infection: day 5 ([1]; 0.2 mg/kg gavage): 1 Mouse
- Number of mice that died on each day after infection: day 6 ([1]; 0.2 mg/kg gavage): 2 Mouse
- Number of mice that died on each day after infection: day 7 ([1]; 0.2 mg/kg gavage): 1 Mouse
- Number of mice that died on each day after infection: day 8 ([1]; 0.2 mg/kg gavage): 0 Mouse
- Average survival times (Days) ([1]; 0.2 mg/kg gavage): 10.8*** Days
- Number of mice that died on each day after infection: day 4 ([1]; 1 mg/kg gavage): 0 Mouse
- Number of mice that died on each day after infection: day 5 ([1]; 1 mg/kg gavage): 1 Mouse
- Number of mice that died on each day after infection: day 6 ([1]; 1 mg/kg gavage): 0 Mouse
- Number of mice that died on each day after infection: day 7 ([1]; 1 mg/kg gavage): 1 Mouse
- Number of mice that died on each day after infection: day 8 ([1]; 1 mg/kg gavage): 0 Mouse
- Average survival times (Days) ([1]; 1 mg/kg gavage): 12.4**** Days
- Number of mice that died on each day after infection: day 4 ([1]; 5 mg/kg gavage): 0 Mouse
- Number of mice that died on each day after infection: day 5 ([1]; 5 mg/kg gavage): 1 Mouse
- Number of mice that died on each day after infection: day 6 ([1]; 5 mg/kg gavage): 2 Mouse
- Number of mice that died on each day after infection: day 7 ([1]; 5 mg/kg gavage): 0 Mouse
- Number of mice that died on each day after infection: day 8 ([1]; 5 mg/kg gavage): 0 Mouse
- Average survival times (Days) ([1]; 5 mg/kg gavage): 11.5**** Days
- survival time of mice infected with Escherichia coli ([1]; gavage, observed 14 d): superior to those of the Levofloxacin group
- Trypsin MIC [2]: 1 µg/mL
- Number of mice that died on each day after infection: day 1 ([3]; 0.2 mg/kg via tail vein): 2 Mouse
- Number of mice that died on each day after infection: day 2 ([3]; 0.2 mg/kg via tail vein): 1 Mouse
- Number of mice that died on each day after infection: day 3 ([3]; 0.2 mg/kg via tail vein): 1 Mouse
- Number of mice that died on each day after infection: day 4 ([3]; 0.2 mg/kg via tail vein): 1 Mouse
- Number of mice that died on each day after infection: day 5 ([3]; 0.2 mg/kg via tail vein): 1 Mouse
- Average survival times (Days) ([3]; 0.2 mg/kg via tail vein): 7.2** Days
- Number of mice that died on each day after infection: day 1 ([3]; 1 mg/kg via tail vein): 0 Mouse
- Number of mice that died on each day after infection: day 2 ([3]; 1 mg/kg via tail vein): 1 Mouse
- Number of mice that died on each day after infection: day 3 ([3]; 1 mg/kg via tail vein): 0 Mouse
- Number of mice that died on each day after infection: day 4 ([3]; 1 mg/kg via tail vein): 1 Mouse
- Number of mice that died on each day after infection: day 5 ([3]; 1 mg/kg via tail vein): 1 Mouse
- Average survival times (Days) ([3]; 1 mg/kg via tail vein): 10.9**** Days
- Number of mice that died on each day after infection: day 1 ([3]; 5 mg/kg via tail vein): 0 Mouse
- Number of mice that died on each day after infection: day 2 ([3]; 5 mg/kg via tail vein): 2 Mouse
- Number of mice that died on each day after infection: day 3 ([3]; 5 mg/kg via tail vein): 1 Mouse
- Number of mice that died on each day after infection: day 4 ([3]; 5 mg/kg via tail vein): 0 Mouse
- Number of mice that died on each day after infection: day 5 ([3]; 5 mg/kg via tail vein): 0 Mouse
- Average survival times (Days) ([3]; 5 mg/kg via tail vein): 10.5**** Days
- survival time of mice infected with Pseudomonas aeruginosa ([3]; tail vein, observed 14 d): superior to those of the Levofloxacin group
- MIC against Staphylococcus aureus (NRS 384) [4]: 1 µg/mL (≈ 0.618 µM)
- MIC Bacillus subtilis ATCC 6633 [5]: 4 µg/mL (≈ 2.47 µM)
- MIC Enterococcus ATCC 29212 (Enterococcus ATCC 29212): 4 µg/mL (≈ 2.47 µM)
- MIC Candida krusei ATCC 6258 (Candida krusei ATCC 6258): 4 µg/mL (≈ 2.47 µM)
- MIC Staphylococcus aureus ATCC 25923 [6]: 2 µg/mL (≈ 1.24 µM)
- MIC Candida tropicalis ATCC 750 [7]: 2 µg/mL (≈ 1.24 µM)
- MIC Escherichia coli ATCC 25922 [8]: 1 µg/mL (≈ 0.618 µM)
- MIC Klebsiella pneumoniae ATCC 700603 [9]: 2 µg/mL (≈ 1.24 µM)
- MIC Trichophyton ATCC MYA-4438 [10]: 16 µg/mL (≈ 9.89 µM)
- MIC Corynebacterium ATCC 7715 [11]: 2 µg/mL (≈ 1.24 µM)
- MIC Serratia marcescens ATCC 29021 [12]: 4 µg/mL (≈ 2.47 µM)
- MIC Candida albicans ATCC MYA-2876 [13]: 4 µg/mL (≈ 2.47 µM)
- MIC Pseudomonas aeruginosa ATCC 27853 [14]: 1 µg/mL (≈ 0.618 µM)
- MIC Salmonella typhimurium ATCC 14028 [15]: 4 µg/mL (≈ 2.47 µM)
- MIC Candida utilis ATCC 9950 (Candida utilis ATCC 9950): 8 µg/mL (≈ 4.94 µM)
- MIC Candida glabrata ATCC 15126 [16]: 4 µg/mL (≈ 2.47 µM)
